Experimental data from patent US9422238B2, “ICMT inhibitors” (National University of Singapore, priority 2012, dated 2016).

Tested on: PC3 cells
Experiment: Immunofluorescence analysis of LC3 aggregation
Assay type: cell-based, human
Details: PC3, 48 h
Method: Cover slips were placed into the base of each well in a 24-well plate. PC3 cells were seeded at 10 000 cells/mL per well in media (DMEM Hi-glucose, 10% FBS, 50 μg/mL penicillin, 50 μg/mL streptomycin) and incubated for 24 h. After this time, cells were attached as a layer onto the exposed face of the cover slip. The media was carefully removed from the well without disrupting the cell layer on the cover slip. Test compound in DMEM (high glucose, 5% FBS) was added and incubated for 24 h or 48 h. DMSO concentration was kept at 0.05% per well, including control wells. At the end of the incubation period, media was removed, wells were washed thrice with PBS, followed by addition of chilled PBST (200 μL) per well for 10 minutes to permeabilize the cells. Cells were then fixed with 4% paraformaldehyde (300 μL), incubated for 15 minutes, and washed with cold PBS (3 times) to remove the fixing solution. To the cell layer fixed on the cover slip in the well was added 100 μL of anti-LC3 in PBST (1:1000). The plates were kept at 4° C. overnight after which each well was washed 3× with cold PBS. Rhodamine Red-X® secondary antibody (Jackson Immunoresearch Laboratories, West Grove, Pa.) was added, incubated (2 h, 25° C.) and removed by washing with PBS (3 times). The cover slips were carefully removed from the wells and mounted onto glass slides and sealed with nail polish. […]

## CCCCCCCCn1cc(CN(CC)CC)c2cc(-c3cnc(N)nc3)ccc21 [Compound 8-12, 5-(3-Diethylaminomethyl-1-octyl-1H-indol-5-yl)-pyrimidin-2-ylamine]
  LC3 aggregation (immunofluorescence): punctate LC3-positive (red) vacuoles were observed at 2.5 and 5 μM
